{"source": "patent US4321254A", "about": "“Antiallergic imidodisulfamides” (SmithKline Corporation, priority 1980, dated 1982)", "system": "slow reacting substance of anaphylaxis (SRS-A)", "assay": "Inhibition of SRS-A induced contraction of guinea pig ileum", "conditions": "compound concentration 5×10^-6 M, partially purified SRS-A from guinea pig lung, agonist 40 μg/ml, 15 min, 5 µM", "procedure": "The SRS-A antagonist activity of the compounds of this invention is measured by the ability of the active medicament to inhibit SRS-A induced contraction of guinea pig ileum. In this test system, sections of ileum are resected from guinea pigs and placed in 5 ml. tissue baths containing a modified Tyrode's solution. One end of the tissue is fixed to a glass tissue holder, the other is connected to a force-displacement transducer and the tissue is placed under a tension of 500 mg. Isometric tissue contractions are recorded on a six channel polygraph. Baths are constantly aerated with 95% O2 -5% CO2. After a 20 minute stabilization period a concentration of the appropriate agonist which provides a contraction height of 60-80% of the maximum obtainable to that agonist (as determined) from full sequential concentration--response curves in separate experiments) is added to the tissue bath and the response recorded. The procedure is repeated until reproducible responses are obtained. […] Percent inhibition produced by the test compound is calculated by substracting the mean percentage change in control tissue from the mean percentage change in tissues exposed to the test compound. Additional compounds are then evaluated as long as the tissue remains reproducibly responsive to the agonist. […]"}
{"molecule": "O=S(=O)(Nc1ccc2c(c1)CN(S(=O)(=O)NS(=O)(=O)N1CCc3ccc(NS(=O)(=O)c4ccc(Cl)cc4)cc3C1)CC2)c1ccc(Cl)cc1", "note": "[Compound 1, N,N'-bis[7-(4-chlorophenylsulfonamide)-1,2,3,4-tetrahydroisoquinolyl]disulfonylimide]", "values": [{"measurement": "percent antagonism of SRS-A induced contraction", "value": 59, "unit": "%"}]}
